Experiments:
[1] = tested on: human breast cancer BR-05-0028 model; test: In vivo efficacy, human breast cancer BR-05-0028 mouse xenograft tumor; parameters: species or system BALB/c nude mice
Method: II. The tumor diameter was measured with a vernier caliper and the tumor volume was calculated according to the formula V=0.5a×b^2 (where a is the longest diameter of the tumor and b is the shortest diameter of the tumor). […] Animals in each group were administered by tail vein injection, and the control group was given an equal volume of vehicle. […] T/C and TGI values were calculated using tumor volume. The calculation formula is as follows: T/C %=TRTV/CRTV×100% (TRTV: RTV of the treatment group; CRTV: RTV of the vehicle control group). The relative tumor volume (RTV) was calculated based on the results of tumor measurement, and the calculation formula was RTV=Vt/V0, where V0 was the average tumor volume measured at the time of grouping (i.e., D0), Vt was the average tumor volume at one measurement, and TRTV and CRTV took the same day of data.
The human breast cancer BR-05-0028 model (IHC 3±) was derived from tumor samples resected in clinical surgery. The tumor samples were inoculated into nude mice at the P0 generation, and the tumor tissue used in this example was the P5 generation. Tumor tissue with a volume of about 30 mm^3 was subcutaneously inoculated into the right back dorsum of SPF female BALB/c nude mice aged 6-8 weeks.

[2] = tested on: NCI-N87 mouse xenograft tumor; test: In vivo efficacy, NCI-N87 mouse xenograft tumor; parameters: species or system BALB/c nude mice; settings: Table 14, BIW*6, 3 mg/kg
[3] = tested on: MDA-MB-468 mouse xenograft tumor; test: In vivo efficacy, MDA-MB-468 mouse xenograft tumor; parameters: species or system BALB/c Nude mice; settings: 4.5 mg/kg, intravenously
Method: The MDA-MB-468 tumor cells (ATCC, HTB-132) were maintained in vitro as a monolayer culture in L-15 medium supplemented with 10% fetal bovine serum and 1% Antibiotic-Antimycotic at 37° C. in an atmosphere of 0% CO2 in air. The cells growing in an exponential growth phase will be harvested and counted for tumor inoculation. For in vivo anti-tumor efficacy study, 10×10^6 MDA-MB-468 human breast cancer cells (Trop2 positive) in 0.2 mL of PBS with Matrigel (1:1) were inoculated subcutaneously in the right flank in BALB/c Nude mice. […] The tumor volume was measured twice weekly with a caliper. T/C and TGI values were calculated using tumor volume.

[4] = Table 15, BIW*6, 5 mg/kg, Day 21

Trodelvy
Tumor volume (mm^3) Day 21 ([1]; Table 15, BIW*6, 5 mg/kg): 5 ± 2 mm^3 | T/C (%) [1, 4]: 0.35% | TGI (%) [1, 4]: 111.76% | Tumor volume (mm^3) Day 0 ([1]; Table 15, BIW*6, 5 mg/kg, baseline at grouping): 171 ± 29 mm^3 | tumor growth inhibition (in words) ([1]; effect example 3.1.3, 5 mg/kg (ADC-1 also 10 mg/kg), after 21 days): able to significantly inhibit tumor growth | Tumor volume (mm^3) Day 32 [2]: 864 ± 114 mm^3 | T/C (%) ([2]; Day 32): 65.85% | TGI (%) ([2]; Day 32): 41.10% | Tumor volume (mm^3) Day 0 ([2]; baseline at grouping): 227 ± 21 mm^3 | Tumor volume (mm^3) on day 35 [3]: 535 ± 60 mm^3 | T/C (%) ([3]; day 35): 78.73% | TGI (%) ([3]; day 35): 29.24%

Reference: patent US20260250412A1, “COMBINATION OF ANTIBODY-DRUG CONJUGATE AND ANTI-PD-1 ANTIBODY, AND USE THEREOF” (GENEQUANTUM HEALTHCARE (SUZHOU) CO., LTD., priority 2023, published 2026)
